PubChem BioAssay (NCI)
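Cells were grown in 96-well plates and exposed to each compound for 48 hours at five concentrations; endpoints were interpolated linearly between bracketing concentrations, or set to the highest concentration if not reached. Abbreviation: GI50, concentration required for 50% inhibition of growth. Definition used: TGI = concentration required for complete inhibition of growth.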

Tests used:
Test in all cases: NCI tumour cell line growth inhibition, 48 h
CCRF-CEM leukemia = test system: CCRF-CEM leukemia
HT29 colon = test system: HT29 colon
OVCAR-5 ovarian = test system: OVCAR-5 ovarian
HOP-92 NSCLC = test system: HOP-92 NSCLC
T-47D breast = test system: T-47D breast
HS 578T breast = test system: HS 578T breast
786-0 renal = test system: 786-0 renal
SR leukemia = test system: SR leukemia
TK-10 renal = test system: TK-10 renal
MOLT-4 leukemia = test system: MOLT-4 leukemia

| SMILES | TGI (CCRF-CEM leukemia) [µM] | TGI (HT29 colon) [µM] | TGI (OVCAR-5 ovarian) [µM] | TGI (HOP-92 NSCLC) [µM] | TGI (T-47D breast) [µM] | TGI (HS 578T breast) [µM] | TGI (786-0 renal) [µM] | TGI (SR leukemia) [µM] | TGI (TK-10 renal) [µM] | TGI (MOLT-4 leukemia) [µM] | GI50 (CCRF-CEM leukemia) [µM] | GI50 (HT29 colon) [µM] | GI50 (OVCAR-5 ovarian) [µM] | GI50 (HOP-92 NSCLC) [µM] | GI50 (T-47D breast) [µM] | GI50 (HS 578T breast) [µM] | GI50 (SR leukemia) [µM] | GI50 (TK-10 renal) [µM] | GI50 (MOLT-4 leukemia) [µM] |
| --- | --- | --- | --- | --- | --- | --- | --- | --- | --- | --- | --- | --- | --- | --- | --- | --- | --- | --- | --- |
| O=C1C=C(N2CCN(c3ccccn3)CC2)C(=O)c2c(O)ccc(O)c21 | > 36.8 | 31.2 | > 46.4 | > 54.1 | > 100 | > 70.3 | 42.9 | > 50.7 | 45.7 | 42.2 | – | – | – | – | – | – | – | – | – |
| O=CNNC(=O)Nc1ccc(Cl)cc1 | > 100 | > 100 | > 100 | 76.8 | > 100 | > 100 | > 100 | > 100 | > 100 | > 100 | – | – | – | – | – | – | – | – | – |
| O=C1CSC2(CC(/C=C/c3ccccc3Br)=NN2c2cccc(S(=O)(=O)O)c2)N1c1nc2ccccc2s1 (configuration not stated) | > 100 | > 100 | > 100 | > 100 | > 100 | > 100 | > 100 | > 100 | > 100 | > 100 | – | – | – | – | – | – | – | – | – |
| O=C(c1ccco1)C1CC(c2ccc3ccccc3c2O)=NN1c1ccc([N+](=O)[O-])cc1[N+](=O)[O-] (configuration not stated) | 10.6 | 42.3 | > 100 | 76.1 | > 100 | 66.6 | > 100 | 23.1 | > 100 | 11.4 | – | – | – | – | – | – | – | – | – |
| CC(C)C1CC(CO)(CNc2cc(Cl)nc(N)n2)C1 (configuration not stated) | > 100 | > 100 | > 100 | > 100 | 87.9 | > 100 | > 100 | > 100 | > 100 | – | – | – | – | – | – | – | – | – | – |
| CCOC(=O)c1nc2ccccc2nc1NCc1ccc(Cl)cc1Cl | > 100 | > 100 | > 100 | > 100 | > 100 | > 100 | > 100 | > 100 | > 100 | > 100 | – | – | – | – | – | – | – | – | – |
| C/C(=N\Nc1ccccc1)C(CN(C)C)C(c1ccccc1)c1c(O)c2ccccc2oc1=O (configuration not stated) | > 100 | > 100 | > 100 | 97 | > 100 | > 100 | > 100 | > 100 | > 100 | > 100 | – | – | – | – | – | – | – | – | – |
| COc1cc(-n2cc(-c3cc(O)c(C/C=C(\C)CCC=C(C)C)c(O)c3)nn2)cc2c1O[C@]1(C)CC[C@@H](O)C(C)(C)[C@H]1C2 | > 43.3 | 5.81 | 21.5 | 17.3 | 47.2 | 3.41 | – | > 100 | > 100 | 1.36 | 0.194 | 1.71 | 2.35 | 1.03 | 1.34 | 0.0452 | 0.0317 | 7.97 | 0.0671 |
| O=C1OI(C#Cc2ccccc2)c2ccccc21 | 4.01 | 20.1 | > 40.1 | 5.66 | 10.8 | 26.6 | 11.2 | 5.53 | 13.5 | 5.34 | – | – | – | – | – | – | – | – | – |
| CC1=C2C(=O)c3ccccc3C(=O)[C@H]2C[C@@H](N2CCCCCC2=O)O1 | 20.3 | 71.2 | 30.4 | 36 | 42.3 | > 100 | 32.7 | 25.7 | 37.7 | 58.5 | – | – | – | – | – | – | – | – | – |
| c1ccc([P+](c2ccccc2)(c2ccccc2)c2ccc([P+](c3ccccc3)(c3ccccc3)c3ccccc3)cc2)cc1 | > 100 | > 100 | > 100 | – | > 100 | > 100 | > 100 | > 100 | > 100 | > 100 | – | – | – | – | – | – | – | – | – |
| CNc1ccc(Cl)cc1S(=O)(=O)c1ccccc1[N+](=O)[O-] | > 100 | > 100 | > 100 | – | > 100 | > 100 | > 100 | > 100 | > 100 | > 100 | – | – | – | – | – | – | – | – | – |
| CC(C)(C)OC(=O)N1CCc2c(n(C/C=C/c3ccccc3)[nH]c2=O)C1 | > 100 | > 100 | – | > 100 | > 100 | > 100 | > 100 | > 100 | > 100 | > 100 | – | – | – | – | – | – | – | – | – |
| COC(=O)/C=C/c1ccc2c(c1)CC1(Cc3ccccc3C1)C2 | 57.3 | > 100 | > 100 | > 100 | > 100 | 80.4 | > 100 | 58.1 | > 100 | > 100 | – | – | – | – | – | – | – | – | – |
| NC(=O)C1=CC2C3C=CC2(O)C(=O)OC3O1 (configuration not stated) | 9.8 | 9.83 | > 64.5 | 6.73 | 15.1 | 5.57 | 16 | 5.48 | 16.7 | 8.78 | – | – | – | – | – | – | – | – | – |
| COC1=CC(=O)C2=C(C1=O)[C@H]1CC[C@]3(C)[C@@H](OC(C)=O)CC[C@H]3[C@@H]1CC2 | > 100 | 48.5 | > 100 | 24 | 49.4 | > 100 | > 100 | > 100 | > 100 | 84 | – | – | – | – | – | – | – | – | – |
| O=P(O)(O)CN1CCNCCN(CP(=O)(O)O)CCNCC1 | > 100 | > 100 | > 100 | 9.76 | > 100 | > 100 | > 100 | 4.16 | > 100 | > 100 | – | – | – | – | – | – | – | – | – |

| SMILES | TGI (CCRF-CEM leukemia) [µM] | TGI (HT29 colon) [µM] | TGI (OVCAR-5 ovarian) [µM] | TGI (HOP-92 NSCLC) [µM] | TGI (T-47D breast) [µM] | TGI (HS 578T breast) [µM] | TGI (786-0 renal) [µM] | TGI (SR leukemia) [µM] | TGI (TK-10 renal) [µM] | TGI (MOLT-4 leukemia) [µM] | GI50 (CCRF-CEM leukemia) [µM] | GI50 (HT29 colon) [µM] | GI50 (OVCAR-5 ovarian) [µM] | GI50 (HOP-92 NSCLC) [µM] | GI50 (T-47D breast) [µM] | GI50 (HS 578T breast) [µM] | GI50 (SR leukemia) [µM] | GI50 (TK-10 renal) [µM] | GI50 (MOLT-4 leukemia) [µM] |
| --- | --- | --- | --- | --- | --- | --- | --- | --- | --- | --- | --- | --- | --- | --- | --- | --- | --- | --- | --- |
| CC(C)CCCC(C)[C@H]1CC[C@H]2N=C(Nc3ccccc3)CCC[C@]12C (some centres not stated) | 25.3 | 4.09 | – | 9.42 | 14.2 | 5.81 | 3.45 | 4.33 | 9.33 | 3.97 | – | – | – | – | – | – | – | – | – |
| O=c1oc2ccc(Cl)cc2cc1-c1cn2ccsc2n1 | 78.3 | > 100 | – | 64.3 | > 100 | > 100 | > 100 | > 100 | > 100 | > 100 | – | – | – | – | – | – | – | – | – |
| Cc1ccc(S(=O)(=O)N/N=C2\C3CC4CC(C3)C2C4)cc1 (configuration not stated) | > 100 | > 100 | > 100 | – | > 100 | > 100 | > 100 | > 100 | > 100 | > 100 | – | – | – | – | – | – | – | – | – |
| Cn1c(=O)sc2cc(C(=S)N3CCOCC3)ccc21 | > 100 | > 100 | > 100 | > 100 | > 100 | > 100 | > 100 | > 100 | > 100 | > 100 | – | – | – | – | – | – | – | – | – |
| COc1ccc(C=Nc2ccc(-c3nc4ccccc4[nH]3)cc2)cc1OC | > 100 | > 100 | > 100 | > 100 | > 100 | > 100 | > 100 | > 100 | > 100 | > 100 | – | – | – | – | – | – | – | – | – |
| CCN(CC)CCN(C)CCc1ccc(Br)cc1 | > 100 | > 100 | > 100 | > 100 | > 100 | > 100 | > 100 | > 100 | > 100 | > 100 | – | – | – | – | – | – | – | – | – |
| CCOC(=O)/C(C#N)=C/N(CC)/N=C/c1ccccc1 | > 100 | > 100 | > 100 | > 100 | > 100 | > 100 | > 100 | > 100 | > 100 | > 100 | – | – | – | – | – | – | – | – | – |
| CCCCCCOP(=O)(OCCCCCC)OC(C(=O)OC)C(F)(F)F (configuration not stated) | > 100 | > 100 | > 100 | > 100 | > 100 | > 100 | > 100 | > 100 | > 100 | > 100 | – | – | – | – | – | – | – | – | – |
| O=C1CC2(CCNCC2)C(=O)N1N1CCOCC1 | > 100 | > 100 | > 100 | > 100 | > 100 | > 100 | > 100 | > 100 | > 100 | > 100 | – | – | – | – | – | – | – | – | – |
| CCCNC(=O)CCC(C)[C@H]1CCC2C3C(C[C@H](OC(C)=O)[C@@]21C)[C@@]1(C)CCC2(C[C@H]1C[C@H]3OC(C)=O)OOC1(CCCCC1)OO2 (some centres not stated) | 4.95 | > 90.8 | 25.8 | 3.82 | 6.44 | > 53 | 6.53 | 4.7 | 4.32 | 5.14 | – | – | – | 1.42 | – | – | – | – | – |
| CC(C)=CCC[C@@H](C)c1c2[nH]c3ccccc3sc-2c(C)c(=O)c1=O | > 42.4 | > 27.4 | > 75 | > 75 | 23.1 | > 48.9 | 24.1 | > 61.6 | > 75 | > 75 | – | – | – | – | – | – | – | – | – |
| COC(=O)c1ccc(/C=C2\CCc3ccccc3C2=O)cc1 | > 100 | > 100 | > 100 | > 100 | > 100 | > 100 | > 100 | > 100 | > 100 | > 100 | – | – | – | – | – | – | – | – | – |
| CC1(C)[C@@H]2CC[C@@]1(C)[C@H](O)[C@@H]2SCc1ccccc1 | 96.6 | 29.6 | 33.1 | 28.7 | 62.8 | 30.7 | 32.9 | > 100 | 57.8 | 49.7 | – | – | – | – | – | – | – | – | – |
| CC(=O)c1ccc(NC(=O)CSc2nc(C)nc3c2sc(=S)n3-c2ccccc2)cc1 | > 3.16 | > 3.16 | > 3.16 | > 3.16 | > 3.16 | > 3.16 | > 3.16 | > 3.16 | > 3.16 | > 3.16 | – | – | – | – | – | – | – | – | – |
| CC1=C2NCN(C)N=C2C(C#N)(C#N)C1(C#N)C#N | 7.86 | 51.3 | > 91.7 | 32 | 59 | > 96.3 | 37.7 | 35.8 | 31 | 9.87 | – | – | – | – | – | – | – | – | – |
| Cc1ccc(/C=C2\CN(C)CC3C2=NC(=S)NC3c2ccc(C)cc2)cc1 (configuration not stated) | 54.5 | > 100 | > 100 | > 31.1 | 96.9 | > 100 | > 100 | > 100 | > 100 | 56 | – | – | – | – | – | – | – | – | – |
